Results as given in article PMC10861852, “Loss of activation by GABA in vertebrate delta ionotropic glutamate receptors” (Proceedings of the National Academy of Sciences of the …, 2024).

Tests used:
RatGluD2^5x = molecular target: T1, RatGluD2^5x (Rattus norvegicus, UniProt Q63226, A686S/K694R/N720P/P806D/Y613F); assay: Two-electrode voltage clamp, responses to ligands in mutant-expressing oocytes; assay type: cell-based; conditions: ligands 30 mM
T1 construct: expressed in transfected cells; host or cells: Xenopus laevis oocytes injected with mRNA
T1 sequence (Q63226 24-1007 Y613F/A686S/K694R/N720P/P806D): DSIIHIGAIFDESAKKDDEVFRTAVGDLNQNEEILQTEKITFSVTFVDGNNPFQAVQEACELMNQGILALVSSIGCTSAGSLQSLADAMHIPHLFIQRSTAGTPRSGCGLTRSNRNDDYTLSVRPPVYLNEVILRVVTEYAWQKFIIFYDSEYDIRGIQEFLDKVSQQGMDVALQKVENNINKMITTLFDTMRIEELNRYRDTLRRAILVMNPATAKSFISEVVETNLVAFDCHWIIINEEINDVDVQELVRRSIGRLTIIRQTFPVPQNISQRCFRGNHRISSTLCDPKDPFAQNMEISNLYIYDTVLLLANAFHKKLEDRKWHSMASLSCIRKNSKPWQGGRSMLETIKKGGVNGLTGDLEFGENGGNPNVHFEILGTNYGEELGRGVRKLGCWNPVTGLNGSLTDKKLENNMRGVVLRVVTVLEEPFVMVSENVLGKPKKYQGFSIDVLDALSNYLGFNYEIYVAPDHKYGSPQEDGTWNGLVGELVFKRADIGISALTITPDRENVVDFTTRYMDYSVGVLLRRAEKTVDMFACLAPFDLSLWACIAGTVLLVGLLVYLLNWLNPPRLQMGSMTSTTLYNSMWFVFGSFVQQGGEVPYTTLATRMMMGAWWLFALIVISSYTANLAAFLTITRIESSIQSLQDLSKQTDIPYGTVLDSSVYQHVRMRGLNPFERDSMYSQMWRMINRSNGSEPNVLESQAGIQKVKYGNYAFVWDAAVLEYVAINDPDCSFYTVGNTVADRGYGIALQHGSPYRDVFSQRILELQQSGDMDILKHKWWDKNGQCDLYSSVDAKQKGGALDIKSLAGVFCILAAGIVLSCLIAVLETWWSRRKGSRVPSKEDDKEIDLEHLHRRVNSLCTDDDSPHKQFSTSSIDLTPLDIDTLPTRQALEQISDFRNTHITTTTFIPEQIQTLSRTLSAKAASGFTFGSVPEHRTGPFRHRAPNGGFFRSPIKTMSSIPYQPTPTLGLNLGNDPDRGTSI

RatGluD2^Lc^-10x = molecular target: T2, RatGluD2^Lc^-10x (Rattus norvegicus, UniProt Q63226, A654T/A686S/D753Q/K694R/N720P/N763K/P806D/Q786M/R787V/S544G/Y613F); assay: as above; assay type: cell-based; conditions: ligands 30 mM
T2 construct: expressed in transfected cells; host or cells: Xenopus laevis oocytes injected with mRNA

AcaGluD^Rat^NTDlink = assay: Two-electrode voltage clamp, ligand-gated currents in chimera-expressing oocytes; conditions: relative ligand-gated current amplitude, n = 3
Description: (§1) To answer this, we measured ligand-gated currents in two chimeric AcaGluD constructs in which the NTD was replaced with that of RatGluD2: one retaining the NTD-LBD linker of AcaGluD, “AcaGluD^Rat^NTD”; and the other with the NTD-LBD linker of RatGluD2, “AcaGluD^Rat^NTDlink” (Fig. 4 A and B and SI Appendix, Supporting text).

AcaGluD^Rat^NTD = assay: as above; conditions: relative ligand-gated current amplitude, n = 3
Description: as §1

RatGluD1^AC = molecular target: T3, RatGluD1^AC (Rattus norvegicus, UniProt Q62640, A654C); assay: Two-electrode voltage clamp, inhibition of constitutive current in oocytes; assay type: cell-based; conditions: A654C mutant receptor, n = 10
T3 construct: expressed in transfected cells; host or cells: Xenopus laevis oocytes injected with mRNA

DioGluD = assay: Two-electrode voltage clamp, ligand-gated currents in oocytes; assay type: cell-based, Diopisthoporus longitubus; conditions: wild-type
Q772D mutant AcaGluD = assay: Two-electrode voltage clamp, ligand-gated currents in mutant-expressing oocytes
Description: (§2) As the long CTD is implicated little in channel gating and more in expression and trafficking of iGluRs ([3]), we excluded it from this analysis. […] (Two of the mutants incorporated substitutions of two adjacent residues for efficiency.)

K782N mutant AcaGluD = assay: as above
Description: as §2

M805Q mutant AcaGluD = assay: as above
Description: as §2

V806R mutant AcaGluD = assay: as above
Description: as §2

RatGluD2^Lc^-9x = molecular target: T4, RatGluD2^Lc^-9x (Rattus norvegicus, UniProt Q63226, A654T/A686S/D753Q/K694R/N720P/N763K/P806D/Q786M/R787V/Y613F); assay: Two-electrode voltage clamp, responses to ligands in mutant-expressing oocytes; assay type: cell-based; conditions: ligands 30 mM; receptor inactive at rest
T4 construct: expressed in transfected cells; host or cells: Xenopus laevis oocytes injected with mRNA
T4 sequence (Q63226 24-1007 Y613F/A654T/A686S/K694R/N720P/D753Q/N763K/Q786M/R787V/P806D): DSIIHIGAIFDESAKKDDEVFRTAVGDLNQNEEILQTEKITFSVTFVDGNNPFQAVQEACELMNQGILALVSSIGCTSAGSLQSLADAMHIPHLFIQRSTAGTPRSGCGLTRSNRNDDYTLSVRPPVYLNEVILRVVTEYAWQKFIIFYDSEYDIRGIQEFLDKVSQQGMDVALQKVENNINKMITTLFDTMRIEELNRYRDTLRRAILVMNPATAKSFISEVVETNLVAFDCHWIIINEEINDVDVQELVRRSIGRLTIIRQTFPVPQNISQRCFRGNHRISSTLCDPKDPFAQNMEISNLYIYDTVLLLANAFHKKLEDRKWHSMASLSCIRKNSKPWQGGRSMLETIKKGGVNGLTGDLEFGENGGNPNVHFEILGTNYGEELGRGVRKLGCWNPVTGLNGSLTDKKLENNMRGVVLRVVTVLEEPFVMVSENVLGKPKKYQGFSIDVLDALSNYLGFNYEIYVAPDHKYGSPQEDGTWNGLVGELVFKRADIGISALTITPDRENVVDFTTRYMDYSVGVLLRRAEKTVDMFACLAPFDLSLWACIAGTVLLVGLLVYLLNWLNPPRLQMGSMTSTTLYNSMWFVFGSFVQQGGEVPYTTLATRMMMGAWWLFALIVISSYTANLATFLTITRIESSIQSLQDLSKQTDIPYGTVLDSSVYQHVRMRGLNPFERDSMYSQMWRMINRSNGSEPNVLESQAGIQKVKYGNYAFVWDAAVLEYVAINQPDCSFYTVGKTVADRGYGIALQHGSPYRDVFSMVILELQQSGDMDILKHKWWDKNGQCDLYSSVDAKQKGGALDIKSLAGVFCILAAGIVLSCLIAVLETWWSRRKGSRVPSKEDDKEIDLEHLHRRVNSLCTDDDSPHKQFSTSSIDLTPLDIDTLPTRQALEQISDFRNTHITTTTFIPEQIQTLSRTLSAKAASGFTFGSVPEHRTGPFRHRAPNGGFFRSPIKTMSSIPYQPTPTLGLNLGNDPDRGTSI

T2 sequence (Q63226 24-1007 S544G/Y613F/A654T/A686S/K694R/N720P/D753Q/N763K/Q786M/R787V/P806D): as the sequence (Q63226 24-1007 Y613F/A654T/A686S/K694R/N720P/D753Q/N763K/Q786M/R787V/P806D) above, with S521G counted along it
T3 sequence (Q62640 21-1009 A654C): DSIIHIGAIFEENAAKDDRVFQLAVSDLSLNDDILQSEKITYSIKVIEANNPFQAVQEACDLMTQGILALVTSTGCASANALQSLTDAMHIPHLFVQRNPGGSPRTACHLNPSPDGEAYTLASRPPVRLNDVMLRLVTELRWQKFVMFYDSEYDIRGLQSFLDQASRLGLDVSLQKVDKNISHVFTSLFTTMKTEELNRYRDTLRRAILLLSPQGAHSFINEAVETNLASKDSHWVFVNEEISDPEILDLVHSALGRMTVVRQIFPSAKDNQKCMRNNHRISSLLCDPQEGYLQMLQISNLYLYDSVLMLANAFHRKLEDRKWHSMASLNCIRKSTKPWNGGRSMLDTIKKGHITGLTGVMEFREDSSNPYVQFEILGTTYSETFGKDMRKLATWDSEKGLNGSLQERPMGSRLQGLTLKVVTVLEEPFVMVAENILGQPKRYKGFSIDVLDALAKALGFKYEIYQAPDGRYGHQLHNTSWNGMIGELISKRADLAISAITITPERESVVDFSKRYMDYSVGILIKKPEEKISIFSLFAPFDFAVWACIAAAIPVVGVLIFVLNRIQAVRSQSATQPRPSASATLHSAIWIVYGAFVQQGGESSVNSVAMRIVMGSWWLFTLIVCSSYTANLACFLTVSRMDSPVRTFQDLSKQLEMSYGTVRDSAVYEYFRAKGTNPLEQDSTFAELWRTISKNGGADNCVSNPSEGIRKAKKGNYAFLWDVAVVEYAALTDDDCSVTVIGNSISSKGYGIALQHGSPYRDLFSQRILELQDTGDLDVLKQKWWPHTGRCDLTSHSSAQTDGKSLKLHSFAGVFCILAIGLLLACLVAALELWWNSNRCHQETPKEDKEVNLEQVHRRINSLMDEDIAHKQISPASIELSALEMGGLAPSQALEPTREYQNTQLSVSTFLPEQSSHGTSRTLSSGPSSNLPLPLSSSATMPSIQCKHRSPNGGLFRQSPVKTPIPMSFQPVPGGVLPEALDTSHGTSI

| SMILES | current response to ligand (RatGluD2^5x) | current response to ligand (RatGluD2^Lc^-10x) | relative efficacy (AcaGluD^Rat^NTDlink) | relative efficacy (AcaGluD^Rat^NTD) | inactivation of constitutive current relative to D-serine (RatGluD1^AC) | ligand-elicited currents (DioGluD) | maximum GABA-gated current amplitude (Q772D mutant AcaGluD) | maximum GABA-gated current amplitude (K782N mutant AcaGluD) | maximum GABA-gated current amplitude (M805Q mutant AcaGluD) | maximum GABA-gated current amplitude (V806R mutant AcaGluD) | current response to ligand (RatGluD2^Lc^-9x) |
| --- | --- | --- | --- | --- | --- | --- | --- | --- | --- | --- | --- |
| N[C@H](CO)C(=O)O [D-serine] | no responses | showed inward currents | 20 ± 3% | 5 ± 1% | – | – | – | – | – | – | – |
| NCCCC(=O)O [GABA, γ-aminobutyric acid] | no responses | – | – | – | 86 ± 5% | the only ligand that elicited currents | less than 1 μA | less than 1 μA | less than 1 μA | less than 1 μA | – |
| NCC(=O)O [glycine] | no responses | showed inward currents | – | – | – | – | – | – | – | – | conducted inward currents |
